{"source": "paper PMC5790467", "about": "“Enhanced anti-tumor efficacy and mechanisms associated with docetaxel-piperine combination- in vitro and in vivo investigation using a taxane-resistant prostate cancer model” (Oncotarget, 2017)", "key": {"PC3-TxR cells [1]": {"test_system": "PC3-TxR cells", "assay": "Microarray gene expression profiling of PC3-TxR cells treated with PIP", "type": "cell-based, human", "conditions": "6 h", "protocol": "The microarray technique was utilized to identify the potential mechanisms related to the chemosensitizing effect of PIP in PC3-TxR cells by determining the gene expression profile at the whole genome level. PC3-TxR cells were seeded at a density of 1 × 10^5 cells/ml in DMEM supplemented with 10% fetal bovine serum and cultured for 24 h. The cells were then treated with PIP at concentrations of 25 and 50 μg/ml (as low and high concentrations respectively) for 6 h. PIP was initially dissolved in DMSO and diluted to the target concentrations using DMEM. DMSO (0.5%) was used as the negative control (n = 2). Total RNA was extracted using RNeasy Mini Kit (QIAGEN, Valencia, CA, USA) according to the manufacturer’s protocol. The RNA was measured and the quality was checked using the RNA 6000 LabChip and Agilent 2100 BioAnalyzer. Only the high-quality RNA samples (e.g. RNA integrity number greater than 9.0) were used for subsequent microarray procedure performed at the Functional Genomics Core, Beckman Research Institute, City of Hope Comprehensive Cancer Center. Affymetrix Human Genome U133 Plus 2.0 arrays (Santa Clara, CA, USA) containing 54,675 probe sets detecting over 47,000 transcripts were used. The RNA samples were randomized and blinded prior to the microarray processing/analysis. The cRNA synthesis and labeling were carried out following the Affymetrix GeneChip 3′ IVT Express standard preparation protocol using […] of total RNA from each sample, along with polyA spike-in controls. The cRNA samples were converted to double-stranded cDNA. After second-strand synthesis, the cDNA was purified with the GeneChip sample cleanup module (Affymetrix, Santa Clara, CA). Biotinylated cRNAs were then synthesized by in vitro transcription. For each sample, […] of biotinylated cRNA along with hybridization spiked controls (bioB, bioC, bioD, and cre) was hybridized with Affymetrix Human Genome U133 Plus 2.0 array for 16 h at 45°C. Following hybridization, arrays were washed, stained, and then scanned with an Affymetrix GeneChipH 3000 7G scanner.\nStatistical testing and additional analysis of the microarray data were conducted using Partek “Gene Expression” Workflow, i.e., Filtering, PCA, Sample Histogram, QC metrics, Gene Clustering, and ANOVA Analysis). The probe-set level expression data were summarized with Robust Multichip Average (RMA) by taking all 8 microarrays together. PCA and hierarchical clustering analysis (HCA) combined with heatmap was used to assess the quality of the microarray data by evaluating the reproducibility and variation of three replicates within each group and the differences among the three groups. The log2-transformed expression intensities of 54,675 probe sets from the 8 microarrays were used to calculate the Pearson Correlation Coefficient and Ward’s Minimum Variance method was used to calculate the distance between samples.\nThe differentially expressed genes (DEGs) between the treatment and control group were identified using cutoffs of t-test p value < 0.05 and fold change >2. The DEGs and probe sets were selected separately by comparing each treatment group with the control group. The dose dependent DEGs were than selected by overlapping the two DEGs sets. A functional annotation of these genes was carried out, using a gene ontology-based analysis of biological properties."}, "[2]": {"test_system": "CYPs (hepatic metabolism of DTX)", "assay": "In vitro inhibition of hepatic metabolism of DTX in mouse liver microsomes", "type": "in vitro ADME, ICR mice", "conditions": "ICR, pH 7.4, probe DTX (docetaxel) 2 μM", "protocol": "Livers of ICR-NOD/SCID mice administrated with vehicle control or PIP were collected for the ex vivo metabolism study. In vitro metabolic reactions were performed in blank ICR mice liver. Hepatic microsomes were prepared according to the method of Hill. The system of enzymatic incubation was conducted based on the condition reported by Mooiman et al. with minor modification. […] Drug mixture was pre-incubated with mice liver microsome at 0.5 mg/ml in 50 mM phosphate buffer (pH7.4) containing 2.6 mM of NADP^+, 7.1 mM of glucose-6-phosphate and 6.5 mM of magnesium chloride for 15 min. The reaction was initiated by the addition of glucose-6-phosphate dehydrogenase at 0.8 U/ml. After incubation for 60 min, the reaction was terminated by the addition of 200 µl of ice-cold acetonitrile/methanol (50:50, v/v) containing glibenclamide at 100 ng/ml. The mixture was centrifuged at 13000 rpm for 10 min and the supernatant was injected into LC/MS/MS for analysis."}, "[3]": {"assay": "Body weight and tolerability in mice with TxR tumor xenografts", "protocol": "For oral administration of PIP, in 1 ml of PIP dosing solution, 100 µl of its stock solution was solubilized with 500 µl of PEG 400 and 400 µl of physiological saline and the mixture was administrated orally to mice at the dose of 0.1 ml/10 g body weight. […] On Day 0, mice with PC3 cell xenografts were divided into two groups and mice with PC3-TxR cell xenografts were divided into four groups. Mice in each group were treated according to Supplementary Table 3 and the drug dosing lasted for 2 weeks with body weight and tumor sized measured twice per week. […] At the end of experiment, the mice were anesthetized followed by haemospasia to death by cardiac puncture."}, "MCF-7/DOX": {"test_system": "MCF-7/DOX", "set-up": "method as in PMID 21802927", "conditions": "PIP at 50 μM; cited from earlier work"}, "PC3-TxR cells [4]": {"test_system": "PC3-TxR cells", "assay": "Cell viability (cytotoxicity) of PC3-TxR cells", "type": "cell-based", "conditions": "Homo sapiens, triplicate samples, read-out: IC50, cytotoxicity of PIP on PC3-TxR", "from_the_text": "www.impactjournals.com/oncotarget/ Oncotarget, Supplementary Materials 2017\ninvestigation using a taxane-resistant prostate cancer model\nSupplementary Figure 1: Cell viability (measured from triplicate samples) of PC3-TxR cells. (A) The cytotoxicity of PIP\n(1 picture or pasted object on this page, not shown here)"}, "A-549/DDP": {"test_system": "A-549/DDP", "set-up": "method as in PMID 21802927", "conditions": "PIP at 50 μM; cited from earlier work"}, "[5]": {"conditions": "i.g.; female Fischer rats; cited from earlier work"}}}
{"smiles": "O=C(/C=C/C=C/c1ccc2c(c1)OCO2)N1CCCCC1", "note": "[PIP, 1-piperoyl piperidine]", "values": [{"measurement": "expression change of Angiopoietin-like 4", "setting": "PC3-TxR cells [1]; High dose PIP", "result": 1.6}, {"measurement": "expression change of CYP1B1", "setting": "PC3-TxR cells [1]; High dose PIP", "result": "−4.3"}, {"measurement": "expression change of Fatty acid binding protein 4, adipocyte", "setting": "PC3-TxR cells [1]; High dose PIP", "result": 1.9}, {"measurement": "expression change of Keratin associated protein 2–3", "setting": "PC3-TxR cells [1]; High dose PIP", "result": "−4.7"}, {"measurement": "expression change of Keratin associated protein 3–1", "setting": "PC3-TxR cells [1]; High dose PIP", "result": "−2.7"}, {"measurement": "expression change of Metastasis associated lung adenocarcinoma transcript 1 (non-protein coding)", "setting": "PC3-TxR cells [1]; High dose PIP", "result": 4.1}, {"measurement": "expression change of O-linked N-acetylglucosamine (GlcNAc) transferase", "setting": "PC3-TxR cells [1]; High dose PIP", "result": 2.3}, {"measurement": "expression change of Sodium channel, non-voltage-gated 1, gamma subunit", "setting": "PC3-TxR cells [1]; High dose PIP", "result": 1.5}, {"measurement": "expression change of TCDD-inducible poly(ADP-ribose) polymerase", "setting": "PC3-TxR cells [1]; High dose PIP", "result": "−2.6"}, {"measurement": "expression change of Thrombospondin 1", "setting": "PC3-TxR cells [1]; High dose PIP", "result": "−2.4"}, {"measurement": "expression change of Angiopoietin-like 4", "setting": "PC3-TxR cells [1]; Low dose PIP", "result": 2.3}, {"measurement": "expression change of CYP1B1", "setting": "PC3-TxR cells [1]; Low dose PIP", "result": "−5.1"}, {"measurement": "expression change of Fatty acid binding protein 4, adipocyte", "setting": "PC3-TxR cells [1]; Low dose PIP", "result": 2.5}, {"measurement": "expression change of Keratin associated protein 2–3", "setting": "PC3-TxR cells [1]; Low dose PIP", "result": "−3.3"}, {"measurement": "expression change of Keratin associated protein 3–1", "setting": "PC3-TxR cells [1]; Low dose PIP", "result": "−2.0"}, {"measurement": "expression change of Metastasis associated lung adenocarcinoma transcript 1 (non-protein coding)", "setting": "PC3-TxR cells [1]; Low dose PIP", "result": 3.0}, {"measurement": "expression change of O-linked N-acetylglucosamine (GlcNAc) transferase", "setting": "PC3-TxR cells [1]; Low dose PIP", "result": 2.0}, {"measurement": "expression change of Sodium channel, non-voltage-gated 1, gamma subunit", "setting": "PC3-TxR cells [1]; Low dose PIP", "result": 2.5}, {"measurement": "expression change of TCDD-inducible poly(ADP-ribose) polymerase", "setting": "PC3-TxR cells [1]; Low dose PIP", "result": "−2.8"}, {"measurement": "expression change of Thrombospondin 1", "setting": "PC3-TxR cells [1]; Low dose PIP", "result": "−2.2"}, {"measurement": "IC50 at 60 min", "setting": "[2]", "result": 37.3, "unit": "µM"}, {"measurement": "response of mice to PIP at higher dose", "setting": "[3]; PIP at 100 mg/kg, mice implanted with taxane-resistant prostate cancer", "result": "severe excitation responses"}, {"measurement": "percentage of bodyweights", "setting": "[3]; TxR tumor xenograft mice, two weeks of treatment, control 96%", "result": 98, "unit": "%"}, {"measurement": "enhancement of the sensitivity to doxorubicin", "setting": "MCF-7/DOX", "result": 32, "unit": "folds"}, {"measurement": "IC50", "setting": "PC3-TxR cells [4]", "result": 47.3, "unit": "µg/mL"}, {"measurement": "enhancement of the sensitivity to doxorubicin", "setting": "A-549/DDP", "result": 14, "unit": "folds"}, {"measurement": "LD50", "setting": "[5]", "result": 514, "unit": "mg/kg"}]}
